# Test results as given in US20220033397A1, “PHARMACEUTICAL COMPOUNDS AND THEIR USE AS INHIBITORS OF UBIQUITIN SPECIFIC PROTEASE 19 (USP19)” (ALMAC DISCOVERY LIMITED, priority 2018, published 2022).
# pIC50: −log10 of the molar value.
# Molecular target: T1, Full-length USP19 (Homo sapiens, UniProt O94966)
# T1 construct: Full-length USP19 was purchased from Boston Biochem (E-576); purchased Boston Biochem E-576
# T1 sequence (O94966 1-1318): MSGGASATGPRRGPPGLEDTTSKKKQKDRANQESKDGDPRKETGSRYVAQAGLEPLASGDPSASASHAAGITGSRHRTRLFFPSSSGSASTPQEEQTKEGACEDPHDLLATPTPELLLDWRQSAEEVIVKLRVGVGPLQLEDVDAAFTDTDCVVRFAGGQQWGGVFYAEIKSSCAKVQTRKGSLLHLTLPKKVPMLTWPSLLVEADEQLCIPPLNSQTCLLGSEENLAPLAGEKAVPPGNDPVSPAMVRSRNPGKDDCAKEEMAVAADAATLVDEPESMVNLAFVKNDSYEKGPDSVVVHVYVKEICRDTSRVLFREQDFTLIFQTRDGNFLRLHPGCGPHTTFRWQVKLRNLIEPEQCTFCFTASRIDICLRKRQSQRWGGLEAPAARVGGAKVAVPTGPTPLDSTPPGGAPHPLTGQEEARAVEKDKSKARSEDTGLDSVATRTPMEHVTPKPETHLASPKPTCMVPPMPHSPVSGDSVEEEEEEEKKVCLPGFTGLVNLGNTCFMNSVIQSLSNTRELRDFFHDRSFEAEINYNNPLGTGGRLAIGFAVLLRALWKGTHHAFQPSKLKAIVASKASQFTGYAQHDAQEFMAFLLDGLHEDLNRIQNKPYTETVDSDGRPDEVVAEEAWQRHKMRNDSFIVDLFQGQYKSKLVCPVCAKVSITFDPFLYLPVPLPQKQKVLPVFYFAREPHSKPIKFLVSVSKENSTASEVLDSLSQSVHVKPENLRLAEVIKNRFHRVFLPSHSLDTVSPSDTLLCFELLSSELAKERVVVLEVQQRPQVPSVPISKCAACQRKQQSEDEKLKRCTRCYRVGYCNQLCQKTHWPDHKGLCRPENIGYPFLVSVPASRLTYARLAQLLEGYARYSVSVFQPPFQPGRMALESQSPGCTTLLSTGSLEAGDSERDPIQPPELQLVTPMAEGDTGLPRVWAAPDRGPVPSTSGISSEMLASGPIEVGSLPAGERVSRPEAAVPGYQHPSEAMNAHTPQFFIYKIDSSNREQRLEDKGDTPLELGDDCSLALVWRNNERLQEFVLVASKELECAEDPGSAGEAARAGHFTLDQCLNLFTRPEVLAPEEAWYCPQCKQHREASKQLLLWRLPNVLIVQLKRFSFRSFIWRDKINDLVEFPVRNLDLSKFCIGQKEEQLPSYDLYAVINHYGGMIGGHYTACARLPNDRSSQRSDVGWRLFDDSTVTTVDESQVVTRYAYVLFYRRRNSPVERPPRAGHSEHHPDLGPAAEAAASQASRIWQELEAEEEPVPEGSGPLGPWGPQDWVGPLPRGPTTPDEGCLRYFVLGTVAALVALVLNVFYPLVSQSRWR
# Experiment: USP19 fluorescence polarisation (FP) homogeneous assay with Ubiquitin-Lys-TAMRA substrate
# Type: biochemical
# Settings: 2.5 nM USP19, 30 min pre-incubation, average of at least two duplicate experiments
# Outline: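 Full-length USP19 preincubated 30 min at RT with inhibitor (200 μM to 2 μM series, 8–18 points) before adding 500 nM Ubiquitin-Lys-TAMRA substrate.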
row,Structure (SMILES),pIC50
1,"COCC1COCCN1C(=O)N1CCC(O)(Cn2cnc(-c3ccccc3)cc2=O)C2(CCCC2)C1 (stereo not drawn) [Example 231, 3-((10-Hydroxy-7-(3-(methoxymethyl)morpholine-4-carbonyl)-7-azaspiro[4.5]decan-10-yl)methyl)-6-phenylpyrimidin-4(3H)-one]",4.30 to 5.30
2,"O=C(N1CCC(O)(Cn2cnc3c(cnn3Cc3ccccc3)c2=O)C2(CCCC2)C1)N1CCOC[C@H]1c1ccccc1 (stereo partly drawn) [Example 167, 1-Benzyl-5-((10-hydroxy-7-((R)-3-phenylmorpholine-4-carbonyl)-7-azaspiro[4.5]decan-10-yl)methyl)-1,5-dihydro-4H-pyrazolo[3,4-d]pyrimidin-4-one]",5.30 to 6.30
3,"O=C(N1CC[C@@](O)(Cn2cnc(N3CCCCC3)cc2=O)C2(CCCC2)C1)N1CCNC[C@H]1c1ccccc1 [Example 348, 3-(((S)-10-Hydroxy-7-((R)-2-phenylpiperazine-1-carbonyl)-7-aza-spiro[4.5]decan-10-yl)methyl)-6-(piperi-din-1-yl)pyrimidin-4(3H)-one]",> 6.30
4,"Cc1nc2cnccc2c(=O)n1CC1(O)CCN(C(=O)[C@H](C)CC2CCCCC2)CC12CCCC2 (stereo partly drawn) [Example 153, 3-((7-((R)-3-Cyclohexyl-2-methylpropanoyl)-10-hydroxy-7-azaspiro[4.5]decan-10-yl)methyl)-2-methylpyrido[3,4-d]pyrimidin-4(3H)-one]",5.30 to 6.30
5,"O=C(N1CCC(O)(Cn2cnc(-c3ccccc3)cc2=O)C2(CCCC2)C1)N1CCC[C@H]1c1ncn[nH]1 (stereo partly drawn) [Example 268, 3-((7-((S)-2-(1H-1,2,4-Triazol-5-yl)pyrrolidine-1-carbonyl)-10-hydroxy-7-azaspiro[4.5]decan-10-yl)methyl)-6-phenylpyrimidin-4(3H)-one]",3.60 to 4.30
6,"O=C(N1CC[C@@](O)(Cn2cnc(-c3ccccc3)cc2=O)C2(CCCC2)C1)N1CCNC[C@H]1c1ccc(F)cc1F [Example 368, 3-(((S)-7-((R)-2-(2,4-Difluoro-phenyl)piper-azine-1-carbonyl)-10-hydroxy-7-azaspiro[4.5]decan-10-yl)methyl)-6-phenylpyrimidin-4(3H)-one]",> 6.30
7,"COc1ccc2ccn(CC3(O)CCN(C(=O)[C@H](C)CC4CCCCC4)CC34CCCC4)c(=O)c2c1 (stereo partly drawn) [Example 127, 2-((7-((R)-3-Cyclohexyl-2-methylpropanoyl)-10-hydroxy-7-azaspiro[4.5]decan-10-yl)methyl)-7-methoxyisoquinolin-1(2H)-one]",5.30 to 6.30
8,"O=C(N1CC[C@@](O)(Cn2ccc(-c3ccccc3)cc2=O)C2(CCCC2)C1)N1CCNC[C@H]1c1ccccc1 [Example 287, 1-(((S)-10-Hydroxy-7-((R)-2-phenylpiperazine-1-carbonyl)-7-azaspiro[4.5]decan-10-yl)methyl)-4-phenylpyridin-2(1H)-one]",> 6.30
9,"C[C@H](CC(F)(F)F)C(=O)N1CCC(O)(Cn2ccc3ccncc3c2=O)C2(CCCC2)C1 (stereo partly drawn) [Example 136, 2-((10-Hydroxy-7-((R)-4,4,4-trifluoro-2-methylbutanoyl)-7-azaspiro[4.5]decan-10-yl)methyl)-2,7-naphthyridin-1(2H)-one]",4.30 to 5.30
10,"CSc1ncc2c(=O)n(CC3(O)CCN(C(=O)[C@H](C)CC4CCCCC4)CC34CCCC4)ccc2n1 (stereo partly drawn) [Example 55, 6-((7-((R)-3-Cyclohexyl-2-methylpropanoyl)-10-hydroxy-7-azaspiro[4.5]decan-10-yl)methyl)-2-(methylthio)pyrido[4,3-d]pyrimidin-5(6H)-one]",> 6.30
11,"C[C@H](CC1CCCCC1)C(=O)N1CCC(O)(Cn2cc(N3CCCC3=O)ncc2=O)C(C)(C)C1 (stereo partly drawn) [Example 13, 1-((1-((R)-3-Cyclohexyl-2-methylpropanoyl)-4-hydroxy-3,3-dimethylpiperidin-4-yl)methyl)-5-(2-oxopyrrolidin-1-yl)pyrazin-2(1H)-one]",5.30 to 6.30
12,"O=C(N1CC[C@@](O)(Cn2cnc(-c3ccccc3)cc2=O)C2(CCCC2)C1)N1CCC[C@H]1c1ccccc1 [Example 213, 3-(((S)-10-Hydroxy-7-((S)-2-phenylpyrrolidine-1-carbonyl)-7-azaspiro[4.5]decan-10-yl)methyl)-6-phenylpyrimidin-4(3H)-one]",> 6.30
13,"O=C(N1CC[C@@](O)(Cn2cnc(-c3ccccc3)cc2=O)C2(CCCC2)C1)N1CCNCC1c1ccc(C(F)(F)F)cc1 (stereo partly drawn) [Example 336, 3-(((10S)-10-Hydroxy-7-(2-(4-(trifluoromethyl)phenyl)piperazine-1-carbonyl)-7-azaspiro[4.5]decan-10-yl)methyl)-6-phenylpyrimidin-4(3H)-one]",> 6.30
14,"C[C@H](CC1CCCCC1)C(=O)N1CCC(O)(CN2CC(CO)CC2=O)C2(CCCC2)C1 (stereo partly drawn) [Example 34, 1-((7-((R)-3-Cyclohexyl-2-methylpropanoyl)-10-hydroxy-7-azaspiro[4.5]decan-10-yl)methyl)-4-(hydroxymethyl)pyrrolidin-2-one]",4.30 to 5.30
15,"CCC1CCN(CC2(O)CCN(C(=O)[C@H](C)CC(F)(F)F)CC23CCCC3)C(=O)C1 (stereo partly drawn) [Example 100, 4-Ethyl-1-((10-hydroxy-7-((R)-4,4,4-trifluoro-2-methylbutanoyl)-7-azaspiro[4.5]decan-10-yl)methyl)piperidin-2-one]",4.30 to 5.30
16,"C[C@H](CC1CCCCC1)C(=O)N1CCC(O)(CN2C(=O)C(=O)c3ccccc32)C2(CCCC2)C1 (stereo partly drawn) [Example 36, 1-((7-((R)-3-Cyclohexyl-2-methylpropanoyl)-10-hydroxy-7-azaspiro[4.5]decan-10-yl)methyl)indoline-2,3-dione]",4.30 to 5.30
17,"C[C@H](CC(F)(F)F)C(=O)N1CCC(O)(CN2CC(C3CC3)OCC2=O)C2(CCCC2)C1 (stereo partly drawn) [Example 95, 6-Cyclopropyl-4-((10-hydroxy-7-((R)-4,4,4-trifluoro-2-methylbutanoyl)-7-azaspiro[4.5]decan-10-yl)methyl)morpholin-3-one]",3.60 to 4.30
18,"C[C@H](CC(F)(F)F)C(=O)N1CCC(O)(Cn2cc(C(=O)N(C)C)c3ccccc3c2=O)C2(CCCC2)C1 (stereo partly drawn) [Example 130, 2-((10-Hydroxy-7-((R)-4,4,4-trifluoro-2-methylbutanoyl)-7-azaspiro[4.5]decan-10-yl)methyl)-N,N-dimethyl-1-oxo-1,2-dihydroisoquinoline-4-carboxamide]",3.60 to 4.30
19,"O=C(N1CCC(C2CC2)C1)N1CCC(O)(Cn2cnc(-c3ccccc3)cc2=O)C2(CCCC2)C1 (stereo not drawn) [Example 237, 3-((7-(3-Cyclopropylpyrrolidine-1-carbonyl)-10-hydroxy-7-azaspiro[4.5]decan-10-yl)methyl)-6-phenylpyrimidin-4(3H)-one]",4.30 to 5.30
20,"O=C(N1CC[C@@](O)(Cn2cnc(N3CC(F)(F)C3)cc2=O)C2(CCCC2)C1)N1CCNC[C@H]1c1ccccc1 [Example 357, 6-(3,3-Difluoro-azetidin-1-yl)-3-(((S)-10-hydroxy-7-((R)-2-phenylpiperazine-1-carbonyl)-7-aza-spiro[4.5]decan-10-yl)methyl)pyrimidin-4(3H)-one]",> 6.30
21,"C[C@H](CC1CCCCC1)C(=O)N1CCC(O)(Cn2ccc3nccnc3c2=O)C2(CCCC2)C1 (stereo partly drawn) [Example 150, 6-((7-((R)-3-Cyclohexyl-2-methylpropanoyl)-10-hydroxy-7-azaspiro[4.5]decan-10-yl)methyl)pyrido[3,4-b]pyrazin-5(6H)-one]",3.60 to 4.30
